Results as given in ChEMBL document CHEMBL3407419, “Multiple binding modes of isothiocyanates that inhibit macrophage migration inhibitory factor” (Eur J Med Chem, 2015).

Columns and labels:
[1] = target: T1, Macrophage migration inhibitory factor (Homo sapiens, UniProt P14174); assay: Inhibition of macrophage migration inhibitory factor tautomerase activity in human Jurkat T cells using L-dopachrome methyl ester as substrate incubated for 30 mins prior to substrate addition measured for 2 mins by spectrophotometric analysis; assay type: cell-based
T1 sequence (P14174 whole entry): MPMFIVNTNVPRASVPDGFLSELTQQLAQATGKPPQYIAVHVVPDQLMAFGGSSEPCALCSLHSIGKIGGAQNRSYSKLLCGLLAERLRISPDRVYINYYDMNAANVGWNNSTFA

[2] = target: T1, Macrophage migration inhibitory factor; assay: (§1) Inhibition of human recombinant macrophage migration inhibitory factor tautomerase activity expressed in Escherichia coli DH5alpha using L-dopachrome methyl ester as substrate incubated for 5 mins prior to substrate addition measured for 2 mins by spectrophotometric analysis
[3] = target: T1, Macrophage migration inhibitory factor; assay: Inhibition of macrophage migration inhibitory factor tautomerase activity in human Jurkat T cells using L-dopachrome methyl ester as substrate incubated for 30 mins prior to substrate addition measured 24 months post determination of initial value by spectrophotometric analysis; assay type: cell-based
[4] = target: T1, Macrophage migration inhibitory factor; assay: as §1, with “24 months post determination of initial value” for “for 2 mins”

| IC50 [1] | IC50 [3] | IC50 [4] | Compound | IC50 [2] |
| --- | --- | --- | --- | --- |
| 7.8 µM |  |  | Oc1cccc(CCN=C=S)c1 | 62 µM |
| 4 µM |  |  | Oc1ccc(CCN=C=S)cc1O | 29 µM |
| 7.1 µM |  |  | FC(F)(F)c1ccc(CCN=C=S)cc1 | 40 µM |
| 10.4 µM |  |  | FC(F)(F)c1cccc(CCN=C=S)c1 |  |
| 4.8 µM |  |  | CC(CN=C=S)c1ccc(O)cc1 (stereo unspecified) | 28 µM |
| > 100 µM |  |  | Oc1ccc(C(N=C=S)c2ccc(O)cc2)cc1 |  |
| 0.54 µM | 9.6 µM | 31 µM | Fc1ccc(CN=C=S)cc1 |  |
| 1.5 µM | 11 µM | 54 µM | Fc1cccc(CN=C=S)c1 |  |
| 5.9 µM |  |  | FC(F)(F)c1cccc(CN=C=S)c1 |  |
| 5 µM |  |  | S=C=NCc1ccc2c(c1)OCO2 | 2.9 µM |
| 21 µM |  |  | CCC(N=C=S)c1ccccc1 (stereo unspecified) |  |
| > 100 µM |  |  | CCC(N=C=S)c1ccc(O)cc1 (stereo unspecified) |  |
| 1.2 µM |  |  | CCC(N=C=S)c1ccc(OC)cc1 (stereo unspecified) |  |
| 1.8 µM |  |  | COc1ccccc1OCCN=C=S |  |
| 1.4 µM |  |  | S=C=NCCCc1ccccc1 |  |
| 3.9 µM |  |  | COc1ccc(CN=C=S)cc1 | 0.7 µM |

The next lines start with the molecule.

| Compound | IC50 [1] | IC50 [3] | IC50 [4] | IC50 [2] |
| --- | --- | --- | --- | --- |
| C[C@@H](N=C=S)c1ccccc1 | 1.1 µM |  |  |  |
| Oc1ccc(CCN=C=S)cc1 | 1.2 µM |  |  | 3.6 µM |
| S=C=NCCc1ccc(Cl)cc1 | 1.6 µM |  |  | 1.1 µM |
| NS(=O)(=O)c1ccc(CN=C=S)cc1 | 0.5 µM |  |  | 0.75 µM |
| S=C=NC(c1ccccc1)c1ccccc1 | > 100 µM |  |  |  |
| OCCCCCCN=C=S | 5.1 µM |  |  |  |
| CC(N=C=S)c1ccccc1 (stereo unspecified) [1-PHENYLETHYL ISOTHIOCYANATE] | 2.8 µM |  |  | 1 µM |
| C=CCN=C=S [ALLYL ISOTHIOCYANATE] | 0.25 µM |  |  | 1.1 µM |
| N#CSCc1ccccc1 [BENZYL THIOCYANATE] | > 100 µM |  |  |  |
| O=C=NCCc1ccccc1 [PHENETHYL ISOCYANATE] | > 100 µM |  |  |  |
| S=C=NCCCCc1ccccc1 [PHENYLBUTYL ISOTHIOCYANATE] | 1.9 µM |  |  |  |
| S=C=NCCCCCCc1ccccc1 [PHENYLHEXYL ISOTHIOCYANATE] | 4.2 µM |  |  |  |
| S=C=Nc1ccccc1 [PHENYLISOTHIOCYANATE] | 11 µM |  |  |  |
| C[S+]([O-])CCCCN=C=S (stereo unspecified) [SULFORAPHANE] | 2.2 µM |  |  | 11 µM |
